From US10894784B2, “Heteroarylbenzimidazole compounds” (BAYER PHARMA AKTIENGESELLSCHAFT, priority 2015, dated 2021) come the findings set out here.

Structures are written as SMILES. Like-named read-outs stand apart in the source and are kept apart here.

In the assay the target is TBK1 (Homo sapiens (Human), UniProt Q9UHD2). The experiment in a line: TBK1 low ATP kinase assay (in vitro assay 1). The class given is biochemical.
Where [1] appears, read: in vitro assay 1, read-out: TBK1 low ATP kinase assay IC50.

Sequence of TBK1 (Q9UHD2 whole entry): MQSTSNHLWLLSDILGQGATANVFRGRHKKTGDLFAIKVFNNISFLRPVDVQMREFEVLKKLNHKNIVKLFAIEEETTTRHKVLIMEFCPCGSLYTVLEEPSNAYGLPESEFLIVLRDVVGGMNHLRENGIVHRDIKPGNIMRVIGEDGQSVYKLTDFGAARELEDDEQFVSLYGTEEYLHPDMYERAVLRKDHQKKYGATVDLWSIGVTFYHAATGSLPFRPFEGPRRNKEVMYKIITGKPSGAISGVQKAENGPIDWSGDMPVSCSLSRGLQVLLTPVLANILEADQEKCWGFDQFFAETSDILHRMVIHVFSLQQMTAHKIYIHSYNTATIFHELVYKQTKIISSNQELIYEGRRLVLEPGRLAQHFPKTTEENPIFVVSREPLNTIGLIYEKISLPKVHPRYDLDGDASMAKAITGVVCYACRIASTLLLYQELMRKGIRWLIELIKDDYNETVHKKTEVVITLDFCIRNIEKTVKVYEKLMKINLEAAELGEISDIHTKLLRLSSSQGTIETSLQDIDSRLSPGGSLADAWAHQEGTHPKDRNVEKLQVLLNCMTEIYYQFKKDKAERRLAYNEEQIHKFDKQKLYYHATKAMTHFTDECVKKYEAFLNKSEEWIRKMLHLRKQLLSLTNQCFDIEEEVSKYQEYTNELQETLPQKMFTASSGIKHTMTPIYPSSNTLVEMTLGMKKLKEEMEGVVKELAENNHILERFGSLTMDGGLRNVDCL

For orientation: IC50 means the concentration that inhibits the measured activity by half. On to `CC(C)(C)OC(=O)N1CCN(Cc2ccnc(Nc3nc4ccc(-c5ccncc5C#N)cc4[nH]3)c2)CC1` [Example 133.01, tert-butyl 4-[(2-{[6-(3-cyanopyridin-4-yl)-1H-benzimidazol-2-yl]amino}pyridin-4-yl)methyl]piperazine-1-carboxylate], for which the IC50 under setting [1] is 280 nM.

Take `Cn1cc(-c2ccc3nc(Nc4cc(CN5CCN(C(=O)C6CCC6)CC5)ccn4)[nH]c3c2)cn1` [Example 37.04, cyclobutyl{4-[(2-{[6-(1-methyl-1H-pyrazol-4-yl)-1H-benzimidazol-2-yl]amino}pyridin-4-yl)methyl]piperazin-1-yl}methanone]: the half-inhibitory concentration (IC50) under setting [1] stood at 73.9 nM.

`CC(c1ccnc(Nc2nc3ccc(-c4cc(N5CCC5)ncn4)cc3[nH]2)c1)N1CCN(C(=O)CC(F)(F)F)CC1` (single isomer, unassigned) [Example 115.02, 1-(4-{(1R or 1S)-1-[2-({6-[6-(azetidin-1-yl)pyrimidin-4-yl]-1H-benzimidazol-2-yl}amino)pyridin-4-yl]ethyl}piperazin-1-yl)-3,3,3-trifluoropropan-1-one]: the IC50 under setting [1] was found to be 0.76 nM.

For the molecule `O=C(C1CC1)N1CCN(Cc2ccnc(Nc3nc4ccc(-c5ncnc(NC6CCC6)c5F)cc4[nH]3)c2)CC1` [Example 194.03, (4-{[2-({6-[6-(cyclobutylamino)-5-fluoropyrimidin-4-yl]-1H-benzimidazol-2-yl}amino)pyridin-4-yl]methyl}piperazin-1-yl)(cyclopropyl)methanone], under setting [1], the IC50 is 49.4 nM.

Consider `CC(C)(C)OC(=O)N1CCN(Cc2ccnc(Nc3nc4ccc(-c5ncnc(NCC6CC6)c5F)cc4[nH]3)c2)CC1` [Example 195.01, tert-butyl 4-({2-[(6-{6-[(cyclopropylmethyl)amino]-5-fluoropyrimidin-4-yl}-1H-benzimidazol-2-yl)amino]pyridin-4-yl}methyl)piperazine-1-carboxylate], for which, under setting [1], the IC50 is 105 nM.

For `COc1cnccc1-c1ccc2nc(Nc3cc(CN4CCN(C(=O)OC(C)(C)C)CC4)ccn3)[nH]c2c1` [Example 04.01, tert-butyl 4-[(2-{[6-(3-methoxypyridin-4-yl)-1H-benzimidazol-2-yl]amino}pyridin-4-yl)methyl]piperazine-1-carboxylate], the IC50 under setting [1] was 28.5 nM.

Take `CC(c1ccnc(Nc2nc3ccc(-c4ccncn4)cc3[nH]2)c1)N1CCN(C(=O)CC(F)(F)F)CC1` (single isomer, unassigned) [Example 23.05.02.A, 3,3,3-trifluoro-1-{4-[(1R or 1S)-1-(2-{[6-(pyrimidin-4-yl)-1H-benzimidazol-2-yl]amino}pyridin-4-yl)ethyl]piperazin-1-yl}propan-1-one]: the half-maximal inhibitory concentration (IC50) under setting [1] was 8.23 nM.

In the case of `CN(C)c1ccnc(-c2ccc3nc(Nc4cc(CN5CCN(C(=O)C6CC6)CC5)ccn4)[nH]c3c2)n1` [Example 181.03, cyclopropyl(4-{[2-({6-[4-(dimethylamino)pyrimidin-2-yl]-1H-benzimidazol-2-yl}amino)pyridin-4-yl]methyl}piperazin-1-yl)methanone], the IC50 under setting [1] stood at 362 nM.

Consider `CC(c1ccnc(Nc2nc3ccc(-c4cnn(CC5CCC5)c4)c(Cl)c3[nH]2)c1)N1CCN(C(=O)C2CC2)CC1` (single isomer, unassigned) [Example 75.03, (4-{(1R or 1S)-1-[2-({7-chloro-6-[1-(cyclobutylmethyl)-1H-pyrazol-4-yl]-1H-benzimidazol-2-yl}amino)pyridin-4-yl]ethyl}piperazin-1-yl)(cyclopropyl)methanone], for which, under setting [1], the IC50 worked out at 0.88 nM.

Regarding `CC(c1ccnc(Nc2nc3ccc(-c4cnn(CC5CCCC5)c4)cc3[nH]2)c1)N1CCN(C(=O)OC(C)(C)C)CC1` (single isomer, unassigned) [Example 71.01, tert-butyl 4-{(1R or 1S)-1-[2-({6-[1-(cyclopentylmethyl)-1H-pyrazol-4-yl]-1H-benzimidazol-2-yl}amino)pyridin-4-yl]ethyl}piperazine-1-carboxylate], the IC50 under setting [1] is 100 nM.

Turning to `COc1cncnc1-c1ccc2nc(Nc3cc(C(C)N4CCN(C(=O)C5CC5)CC4)ccn3)[nH]c2c1` (single isomer, unassigned) [Example 35.03.03.A, cyclopropyl{4-[(1R or 1S)-1-(2-{[6-(5-methoxypyrimidin-4-yl)-1H-benzimidazol-2-yl]amino}pyridin-4-yl)ethyl]piperazin-1-yl}methanone], the IC50 under setting [1] was 5.62 nM.

For the molecule `CC(C)Oc1cnccc1-c1ccc2nc(Nc3cc(CN4CCN(C(=O)CC5CC5)CC4)ccn3)[nH]c2c1` [Example 06.03, 2-cyclopropyl-1-(4-{[2-({6-[3-(propan-2-yloxy)pyridin-4-yl]-1H-benzimidazol-2-yl}amino)pyridin-4-yl]methyl}piperazin-1-yl)ethanone], the IC50 under setting [1] came out at 8.26 nM.

Take `CC(c1ccnc(Nc2nc3ccc(-c4cc(N5CC(C(F)(F)F)C5)ncn4)cc3[nH]2)c1)N1CCN(C(=O)C2(C(F)(F)F)CC2)CC1` (single isomer, unassigned) [Example 164.04, {4-[(1R or 1S)-1-{2-[(6-{6-[3-(trifluoromethyl)azetidin-1-yl]pyrimidin-4-yl}-1H-benzimidazol-2-yl)amino]pyridin-4-yl}ethyl]piperazin-1-yl}[1-(trifluoromethyl)cyclopropyl]methanone]: under setting [1], the IC50 stood at 0.832 nM.

Regarding `O=C(C1CCC1)N1CCN(Cc2ccnc(Nc3nc4ccc(-c5ccnc(C(F)(F)F)n5)cc4[nH]3)c2)CC1` [Example 27.02, cyclobutyl(4-{[2-({6-[2-(trifluoromethyl)pyrimidin-4-yl]-1H-benzimidazol-2-yl}amino)pyridin-4-yl]methyl}piperazin-1-yl)methanone], the IC50 under setting [1] was 220 nM.

Regarding `COc1c(-c2ccc3nc(Nc4cc(C(C)N5CCN(C(=O)OC(C)(C)C)CC5)ccn4)[nH]c3c2)ncnc1N(C)C` (single isomer, unassigned) [Example 107.02.01, tert-butyl 4-{(1R or 1S)-1-[2-({6-[6-(dimethylamino)-5-methoxypyrimidin-4-yl]-1H-benzimidazol-2-yl}amino)pyridin-4-yl]ethyl}piperazine-1-carboxylate], the IC50 under setting [1] amounted to 21 nM.

For the molecule `COc1nccc(-c2ccc3nc(Nc4cc(CN5CCN(C(=O)CC6CC6)CC5)ccn4)[nH]c3c2)n1` [Example 25.01.03, 2-cyclopropyl-1-{4-[(2-{[6-(2-methoxypyrimidin-4-yl)-1H-benzimidazol-2-yl]amino}pyridin-4-yl)methyl]piperazin-1-yl}ethanone], the IC50 under setting [1] was found to be 96.7 nM.

As for `Cc1cc(-c2ccc3nc(Nc4cc(CN5CCN(C(=O)C6CC6)CC5)ccn4)[nH]c3c2)cc(C#N)n1` [Example 136.03, 4-{2-[(4-{[4-(cyclopropylcarbonyl)piperazin-1-yl]methyl}pyridin-2-yl)amino]-1H-benzimidazol-6-yl}-6-methylpyridine-2-carbonitrile], under setting [1], the IC50 is 21 nM.

`CCOc1cnc(C)cc1-c1ccc2nc(Nc3cc(CN4CCN(C(=O)C5CC5)CC4)ccn3)[nH]c2c1` [Example 09.02, cyclopropyl{4-[(2-{[6-(5-ethoxy-2-methylpyridin-4-yl)-1H-benzimidazol-2-yl]amino}pyridin-4-yl)methyl]piperazin-1-yl}methanone]: the IC50 under setting [1] is 297 nM.

As to `Cc1cc(CN2CCN(C(=O)CC(F)(F)F)CC2)cc(Nc2nc3ccc(-c4ccnc(C)n4)cc3[nH]2)n1` [Example 24.02.02, 3,3,3-trifluoro-1-{4-[(2-methyl-6-{[6-(2-methylpyrimidin-4-yl)-1H-benzimidazol-2-yl]amino}pyridin-4-yl)methyl]piperazin-1-yl}propan-1-one], the IC50 under setting [1] came to 63.1 nM.

With `COc1nc(Cl)cc(-c2ccc3nc(Nc4cc(CN5CCN(C(=O)OC(C)(C)C)CC5)ccn4)[nH]c3c2)n1` [Example 185.01, tert-butyl 4-[(2-{[6-(6-chloro-2-methoxypyrimidin-4-yl)-1H-benzimidazol-2-yl]amino}pyridin-4-yl)methyl]piperazine-1-carboxylate], the IC50 under setting [1] was 212 nM.

`CC(c1ccnc(Nc2nc3ccc(-c4ccnn4C(C)C)cc3[nH]2)c1)N1CCN(C(=O)CC(F)(F)F)CC1` (single isomer, unassigned) [Example 72.02, 3,3,3-trifluoro-1-(4-{(1R or 1S)-1-[2-({6-[1-(propan-2-yl)-1H-pyrazol-5-yl]-1H-benzimidazol-2-yl}amino)pyridin-4-yl]ethyl}piperazin-1-yl)propan-1-one]: the IC50 under setting [1] came out at 250 nM.

For the molecule `O=C(CC(F)(F)F)N1CCN(Cc2ccnc(Nc3nc4ccc(-c5cc(OCC6CCC6)ncn5)cc4[nH]3)c2)CC1` [Example 159.02, 1-(4-{[2-({6-[6-(cyclobutylmethoxy)pyrimidin-4-yl]-1H-benzimidazol-2-yl}amino)pyridin-4-yl]methyl}piperazin-1-yl)-3,3,3-trifluoropropan-1-one], the IC50 under setting [1] was 15 nM.

On to `Cc1cc(-c2ccc3nc(Nc4cc(C(C)N5CCN(C(=O)C6CC6)CC5)ccn4)[nH]c3c2)ncn1` (racemic) [Example 30.02.03, (rac)-cyclopropyl{4-[1-(2-{[6-(6-methylpyrimidin-4-yl)-1H-benzimidazol-2-yl]amino}pyridin-4-yl)ethyl]piperazin-1-yl}methanone], for which, under setting [1], the IC50 came to 3.73 nM.

`Cc1cc(-c2ccc3nc(Nc4cc(C(C)N5CCN(C(=O)CC(F)(F)F)CC5)ccn4)[nH]c3c2)ncn1` (single isomer, unassigned) [Example 30.03.01.B, 3,3,3-trifluoro-1-{4-[(1S or 1R)-1-(2-{[6-(6-methylpyrimidin-4-yl)-1H-benzimidazol-2-yl]amino}pyridin-4-yl)ethyl]piperazin-1-yl}propan-1-one]: the IC50 (TBK1 low ATP kinase assay IC50, in vitro assay 1) was found to be 2.15 nM.

On to `CC(c1ccnc(Nc2nc3ccc(-c4cc(N5CC(C(F)(F)F)C5)ncn4)cc3[nH]2)c1)N1CCN(C(=O)C2CC2)CC1` (single isomer, unassigned) [Example 164.03, cyclopropyl{4-[(1R or 1S)-1-{2-[(6-{6-[3-(trifluoromethyl)azetidin-1-yl]pyrimidin-4-yl}-1H-benzimidazol-2-yl)amino]pyridin-4-yl}ethyl]piperazin-1-yl}methanone], for which the IC50 under setting [1] stood at 0.558 nM.
